# Laboratory results reported in patent US20180116209A1, “Liposome Formulations” (priority 2012, published 2018).
# Legend:
# Root-Knot larvae (J2) = experiment: Efficacy of nematicides (Oxamyl, Thiodicarb) in killing Root-Knot larvae (J2) in vitro; assay type: in vivo, M. incognita; settings: compared with Oxamyl, 200 ug to 10 mg
# Procedure: M. incognita eggs collected from tomato cultures by NaOC1 extraction (Hussey and Barker, 1973). Briefly, six to twelve week old infected tomato roots were cut into 1-2 segment. Root segments were shacked vigorously in 200 ml of a 0.5% Na O Cl solution for 4 min. Then, the Na O Cl solution was passed quickly through a 200-mesh (75-um), nested over a 500-mesh sieve to collect freed eggs. The a 500-mesh sieve with eggs was quickly placed under a stream of cold water to remove residual Na O Cl and rinsed several times. About 50 ml aqueous suspension of eggs was collected and number of eggs per unit volume will be counted. The egg suspension was allowed to sit at room temperature for 4 days. The hatching juveniles were collected and used in the subsequent experiments.
# Determine the efficient concentration of nematicides (Oxamyl and Thidiocarb) that kill or suppress Root-Knot Larvae.
# M. incognita eggs collected from tomato cultures by NaOC1 extraction (Hussey & Barker, Plant Disease Reporter. 57:1025-1028 (1973)). Egg suspension was incubated at room temperature until larvae were hatched (4-5 days). The juveniles (J2) were counted and evaluated for activity/mobility for the duration of the study. Four different concentrations of both nematicides (Oxamyl and Thiodicarb) were used to assess their efficacy in killing the nematodes. These were untreated control, 200 ug, 1 mg, 2 mg, and 10 mg. […]
# [1] = tested on: nematodes in a dehydrated state; settings: dry soils; cited from earlier work
# plant roots = experiment: Abamectin applied to soil prior to planting: gall formation, root necrosis, root length; assay type: in vivo
# Procedure: Abamectin at 5 μg or 1 μg was directly applied to soil prior to planting. Alternatively abamectin was loaded into liposomes at either 5 μg or 1 μg and applied to soil prior to planting. Gall formation was detected. […] Therefore, liposomal abamectin formulations enhance root length as compared to non-liposomal abamectin formulations.
molecule,measurement,setting,value
"CS/C(C)=N\OC(=O)N(C)SN(C)C(=O)O/N=C(\C)SC [Larvin (Thiodicarb), Thiodicarb]",concentration needed to kill Root-Knot (J2),Root-Knot larvae (J2),required higher concentration to kill Root-Knot (J2)
CBr [methyl bromide],tolerated dose compared to active forms in moist soil,[1],10 times the lethal dose
abamectin [non-liposomal abamectin],root necrosis,"plant roots; 1 μg applied to soil prior to planting, FIG. 4",most root necrosis followed by the non-liposomal abamectin 1 μg application
same,gall formation,"plant roots; 5 μg applied to soil prior to planting, FIG. 3",most gall formulation followed by the non-liposomal abamectin 5 μg application
